Measurements: patent publication US7304174B2, “CaSR antagonist” (Japan Tobacco Inc., priority 2003, dated 2007)

Target: T1, human calcium receptor (Homo sapiens, UniProt P41180)
T1 construct: expressed in transfected cells; host or cells: cell strain derived from rat adrenal, co-transformed with luciferase cDNA
T1 sequence (P41180 20-1078): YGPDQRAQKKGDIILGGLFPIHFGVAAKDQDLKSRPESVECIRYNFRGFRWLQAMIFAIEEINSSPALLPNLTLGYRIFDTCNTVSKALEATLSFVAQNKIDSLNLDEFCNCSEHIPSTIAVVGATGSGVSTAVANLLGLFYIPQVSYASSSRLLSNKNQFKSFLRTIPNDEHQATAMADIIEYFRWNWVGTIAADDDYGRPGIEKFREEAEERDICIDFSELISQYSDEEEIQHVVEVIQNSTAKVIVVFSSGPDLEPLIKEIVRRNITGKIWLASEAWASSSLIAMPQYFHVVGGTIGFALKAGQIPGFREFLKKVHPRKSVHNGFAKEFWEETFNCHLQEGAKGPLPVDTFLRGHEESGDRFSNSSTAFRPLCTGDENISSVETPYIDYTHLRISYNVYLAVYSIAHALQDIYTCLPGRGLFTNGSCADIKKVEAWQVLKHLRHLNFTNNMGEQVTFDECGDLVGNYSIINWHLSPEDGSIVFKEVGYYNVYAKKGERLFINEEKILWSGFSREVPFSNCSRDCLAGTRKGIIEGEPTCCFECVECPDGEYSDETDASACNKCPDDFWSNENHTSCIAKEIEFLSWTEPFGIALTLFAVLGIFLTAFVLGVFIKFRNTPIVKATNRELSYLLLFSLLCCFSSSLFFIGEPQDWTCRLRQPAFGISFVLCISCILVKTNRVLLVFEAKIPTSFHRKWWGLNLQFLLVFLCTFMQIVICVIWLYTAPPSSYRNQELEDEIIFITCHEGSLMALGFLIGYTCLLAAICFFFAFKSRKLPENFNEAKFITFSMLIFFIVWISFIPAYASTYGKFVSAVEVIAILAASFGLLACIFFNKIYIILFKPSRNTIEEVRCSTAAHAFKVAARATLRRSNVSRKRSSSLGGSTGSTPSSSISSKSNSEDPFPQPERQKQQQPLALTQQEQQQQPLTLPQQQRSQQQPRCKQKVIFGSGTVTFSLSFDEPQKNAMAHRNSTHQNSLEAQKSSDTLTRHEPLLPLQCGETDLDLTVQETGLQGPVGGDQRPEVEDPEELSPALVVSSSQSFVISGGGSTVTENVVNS
Experiment: Evaluation of antagonistic action on calcium receptor using reporter gene (luciferase)
Type: cell-based
Details: transformed rat adrenal derived cells, 5 mM calcium chloride, culture 4 hrs, luciferase activity; read-out: Reporter gene assay (IC50, concentration showing 50% inhibitory rate)
Method: Evaluation of Antagonistic Action on Calcium Receptor Using Reporter Gene
Luciferase cDNA and human calcium receptor cDNA were introduced into a cell strain derived from rat adrenal to transform the cells, and the transformed cells were cultured in a medium (80 μl, F12 medium containing 0.5% dialyzed horse serum and 0.25% dialyzed bovine fetal serum). A dimethyl sulfoxide solution containing a test compound at 0.1-10000 μM was diluted 100-fold with the medium and added to the test compound group at 10 μl per well (dimethyl sulfoxide final concentration 0.1%). In the same manner as in test compound group, dimethyl sulfoxide 100-fold diluted with medium was added to a control group and a blank group. Then, 50 mM calcium chloride-containing medium was added to every well except the blank group at 10 μl per well (final concentration 5 mM). A medium containing 50 mM calcium chloride was added to the control group at 10 μl per well, such that the final calcium concentration of the medium became 5 mM. A medium alone was added to the blank group. After culture for 4 hrs, luciferase substrate was added and the luciferase activity was measured with a photoluminometer. The inhibitory rate (%) was calculated from the obtained measured values according to the following formula.
Based on the results, the concentration (IC50) showing 50% inhibitory rate was determined. The results are shown in the aforementioned Tables 1 to 60.

Compound | IC50
CC(C)Cc1cc(-c2ccccc2[C@@H](C)OC[C@H](O)CNC(C)(C)Cc2ccc3ccccc3c2)ccc1C(=O)O [Example 1-45, 3-isobutyl-2′-[1-[(2R)-3-[[1-(naphthalen-2-yl)-2-methylpropan-2-yl]amino]-2-hydroxypropoxy]ethyl]biphenyl-4-carboxylic acid] | 2 nM
Cc1cc(C(=O)O)ccc1-c1ccccc1C(OC[C@H](O)CNC(C)(C)Cc1ccc2ccccc2c1)C1CC1 (stereo partly drawn) [Example 1-66, 2′-[(cyclopropyl)[(2R)-3-[[1-(naphthalen-2-yl)-2-methylpropan-2-yl]amino]-2-hydroxypropoxy]methyl]-2-methylbiphenyl-4-carboxylic acid] | 17 nM
Cc1cc(-c2ccccc2[C@@H](C)OC[C@H](O)CNC(C)(C)Cc2ccc(Cl)cc2F)ccc1C(=O)O [Example 1-110] | 26 nM
C[C@@H](OC[C@H](O)CNC(C)(C)Cc1ccc2ccccc2c1)c1ccccc1Cc1cccc(C(=O)O)c1 [Example 2-15, 3-[2-[1-[(2R)-3-[[1-(naphthalen-2-yl)-2-methylpropan-2-yl]amino]-2-hydroxypropoxy]ethyl]benzyl]benzoic acid] | 16 nM
C[C@@H](OC[C@H](O)CNC(C)(C)Cc1ccc(Cl)c(F)c1)c1ccccc1-c1ccc(C(=O)O)c(CO)c1 [Example 1-106, 2′-[1-[(2R)-3-[[1-(4-chloro-3-fluorophenyl)-2-methylpropan-2-yl]amino]-2-hydroxypropoxy]ethyl]-3-(hydroxymethyl)biphenyl-4-carboxylic acid] | 20 nM
CC(OC[C@H](O)CNC(C)(C)Cc1ccc2ccccc2c1)c1ccccc1C=Cc1ccc(C(=O)O)cc1 (stereo partly drawn) [Example 2-9, 4-[2-[2-[1-[(2R)-3-[[1-(naphthalen-2-yl)-2-methylpropan-2-yl]amino]-2-hydroxypropoxy]ethyl]phenyl]vinyl]benzoic acid] | 16 nM
Cc1ccc(CC(C)(C)NC[C@@H](O)COC(C)c2ccccc2C=Cc2ccc(C(=O)O)cc2)cc1F (stereo partly drawn) [Example 2-11, 4-[2-[2-[1-[(2R)-3-[[1-(3-fluoro-4-methylphenyl)-2-methylpropan-2-yl]amino]-2-hydroxypropoxy]ethyl]phenyl]vinyl]benzoic acid] | 21 nM
Cc1cc(C(=O)O)ccc1-c1ccccc1[C@@H](C)OC[C@H](O)CNC(C)(C)Cc1ccc(Cl)c(F)c1 [Example 1-83, 2′-[1-[(2R)-3-[[1-(4-chloro-3-fluorophenyl)-2-methylpropan-2-yl]amino]-2-hydroxypropoxy]ethyl]-2-methylbiphenyl-4-carboxylic acid] | 16 nM
4-[2-[1-[(2R)-3-[[1-(3-fluoro-4-methylphenyl)-2-methylpropan-2-yl]amino]-2-hydroxypropoxy]ethyl]phenoxy]-3-methoxybenzoic acid [Example 2-2] | 21 nM
COc1ccc(CC(C)(C)NC[C@@H](O)CO[C@H](C)c2ccccc2-c2ccc(C(=O)O)c(C)c2)cc1F [Example 1-20, 2′-[1-[(2R)-3-[[1-(3-fluoro-4-methoxyphenyl)-2-methylpropan-2-yl]amino]-2-hydroxypropoxy]ethyl]-3-methylbiphenyl-4-carboxylic acid] | 40 nM
C[C@@H](OC[C@H](O)CNC(C)(C)Cc1ccc2ccccc2c1)c1ccccc1OCc1ccc(C(=O)O)cc1 [Example 2-22, 4-[[2-[1-[(2R)-3-[[1-(naphthalen-2-yl)-2-methylpropan-2-yl]amino]-2-hydroxypropoxy]ethyl]phenoxy]methyl]benzoic acid] | 17 nM
Cc1cc(-c2ccccc2[C@@H](C)OC[C@H](O)CNC(C)(C)Cc2ccc3ccccc3c2)cc(C)c1C(=O)O [Example 1-40, 3,5-dimethyl-2′-[1-[(2R)-3-[[1-(naphthalen-2-yl)-2-methylpropan-2-yl]amino]-2-hydroxypropoxy]ethyl]biphenyl-4-carboxylic acid] | 3 nM
C[C@@H](OC[C@H](O)CNC(C)(C)Cc1ccc(Cl)c(F)c1)c1ccccc1-c1ccc(C(=O)O)c(C(=O)O)c1 [Example 1-107, 2′-[1-[(2R)-3-[[1-(4-chloro-3-fluorophenyl)-2-methylpropan-2-yl]amino]-2-hydroxypropoxy]ethyl]-3-carboxylphenyl-4-carboxylic acid] | 200 nM
C[C@@H](OC[C@H](O)CNC(C)(C)Cc1ccc2ccccc2c1)c1ccccc1-c1ccc(CO)c(C(=O)O)c1 [Example 1-44, 4-(hydroxymethyl)-2′-[1-[(2R)-3-[[1-(naphthalen-2-yl)-2-methylpropan-2-yl]amino]-2-hydroxypropoxy]ethyl]biphenyl-3-carboxylic acid] | 9 nM
COc1cc(-c2ccccc2[C@@H](C)OC[C@H](O)CNC(C)(C)Cc2ccc(Cl)cc2F)ccc1C(=O)O [Example 1-81, 2′-[1-[(2R)-3-[[1-(4-chloro-2-fluorophenyl)-2-methylpropan-2-yl]amino]-2-hydroxypropoxy]ethyl]-3-methoxybiphenyl-4-carboxylic acid] | 26 nM
Cc1ccc(CC(C)(C)NC[C@@H](O)CO[C@H](C)c2ccccc2-c2ccc(C(=O)O)c(N3CCOCC3)c2)cc1F [Example 1-102, 2′-[1-[(2R)-3-[[1-(3-fluoro-4-methylphenyl)-2-methylpropan-2-yl]amino]-2-hydroxypropoxy]ethyl]-3-morpholinobiphenyl-4-carboxylic acid] | 14 nM
CCc1ccc(CC(C)(C)NC[C@@H](O)CO[C@H](C)c2ccccc2-c2ccc(C(=O)O)c(C)c2)cc1 [Example 1-24, 2′-[1-[(2R)-3-[[1-(4-ethylphenyl)-2-methylpropan-2-yl]amino]-2-hydroxypropoxy]ethyl]-3-methylbiphenyl-4-carboxylic acid] | 20 nM
Cc1cc(-c2ccccc2[C@@H](C)OC[C@H](O)CNC(C)(C)Cc2cc(Cl)cc(Cl)c2)ccc1C(=O)O [Example 1-87, 2′-[1-[(2R)-3-[[1-(3,5-dichlorophenyl)-2-methylpropan-2-yl]amino]-2-hydroxypropoxy]ethyl]-3-methylbiphenyl-4-carboxylic acid] | 14 nM
CCc1ccc(CC(C)(C)NC[C@@H](O)CO[C@H](C)c2ccccc2-c2ccc(C(=O)O)c(C)c2)cc1F [Example 1-8, 2′-[1-[(2R)-3-[[1-(4-ethyl-3-fluorophenyl)-2-methylpropan-2-yl]amino]-2-hydroxypropoxy]ethyl]-3-methylbiphenyl-4-carboxylic acid] | 15 nM
Cc1cc(CC(C)(C)NC[C@@H](O)CO[C@H](C)c2ccccc2-c2ccc(C(=O)O)c(C)c2)ccc1Cl [Example 1-4, 2′-[1-[(2R)-3-[[1-(4-chloro-3-methylphenyl)-2-methylpropan-2-yl]amino]-2-hydroxypropoxy]ethyl]-3-methylbiphenyl-4-carboxylic acid] | 14 nM
CC(OC[C@H](O)CNC(C)(C)Cc1ccc2ccccc2c1)c1ccccc1NCc1ccc(C(=O)O)cc1 (stereo partly drawn) [Example 2-19, 4-[[2-[1-[(2R)-3-[[1-(naphthalen-2-yl)-2-methylpropan-2-yl]amino]-2-hydroxypropoxy]ethyl]phenylamino]methyl]benzoic acid] | 29 nM
C[C@@H](OC[C@H](O)CNC(C)(C)Cc1ccc2ccccc2c1)c1ccccc1-c1ccc(C(=O)O)c(N)c1 [Example 1-70, 3-amino-2′-[1-[(2R)-3-[[1-(naphthalen-2-yl)-2-methylpropan-2-yl]amino]-2-hydroxypropoxy]ethyl]biphenyl-4-carboxylic acid] | 5 nM
Cc1ccc(CC(C)(C)NC[C@@H](O)COC(C)c2ccccc2Oc2c(C)cc(C(=O)O)cc2C)cc1F (stereo partly drawn) [Example 2-12, 4-[2-[1-[(2R)-3-[[1-(3-fluoro-4-methylphenyl)-2-methylpropan-2-yl]amino]-2-hydroxypropoxy]ethyl]phenoxy]-3,5-dimethylbenzoic acid] | 5 nM
